We go through one sequence from PMC3098219, “Protective Efficacy of Serially Up-Ranked Subdominant CD8^+ T Cell Epitopes against Virus Challenges” (PLoS Pathogens, 2011).

Entries after “also recorded” stand apart in the source; their conditions may differ.

In experiment [1] the test system is CD8^+ splenocytes of immunized mice. Type of experiment: cell-based, BALB/c mice. The settings on record: HIVAdH vs HIVA immunization; ex vivo ICS, Figure 1D.
In experiment [2] the test system is H-2D^d, H-2K^d or H-2L^d complexes. The experiment is described as follows: T2 peptide binding assay, respective MHC class I complexes. The settings on record: Figure 3A; TAP-deficient T2 cells, 100 µM to 0.1 µM peptide, 14 h at 37°C, FACS. How it is done: Figure 3 Contributing mechanisms of immunodominance. […] T2 cell lines were incubated with decreasing peptide concentrations ranging from 100 µM to 0.1 µM indicated above the H peptide histogram and the cell surface peptide-loaded MHC complexes were detected by fluorochrome-conjugated mAb (DB Biosciences) and quantified using FACS flow cytometer. B) and C) Groups of 3 BALB/c mice were given 3x immunizations using 100 µg of DNA expressing the index or mutated forms of HIVA at 3 wk intervals and their T cell responses were analyzed 4 wk later. B) Splenocytes were assessed in an ICS assay using peptides indicated above the graphs at concentrations ranging from 10 to 10^−8 µM for 5 h. Cells were gated on IFN-γ-producing CD8^+ T cell populations positive (top) or negative (bottom) for CD107a/b. Note the different y-axis scales on the top and bottom graphs. C) The response kinetics of CD8^+ T cells re-stimulated with 0.1 µM peptides was assessed in an ICS assay in 1-h intervals for a period of 4 h. Data shown are as mean±SD of [CD8^+CD107a/b^+IFN-γ^+ cells at each time point (%)] ÷ [CD8^+CD107a/b^+IFN-γ^+ at 4 h (%)]. One out of two independent experiments is shown.
TAP2 ([…])-deficient T2 cell lines stably expressing D^d, K^d, and L^d molecules kindly provided by Dr. Ted Hansen (Washington university, U.S.A.) were used to assess the ability of MHCs to bind each peptide. In brief, 1×10^5 cells were incubated with 0/0.1/1.0/10/100 µM peptides in no-serum RPMI (R-0) for 14 h at 37°C, 5% CO2 in a flat-bottomed 96-well plate. 14 h later, cells were transferred to a round-bottomed 96-well plate and washed with PBS before staining the cells with anti-H-2K^d/H-2D^d-PE or anti-H-2L^d-PE (eBioscience) monoclonal antibodies. Cells were then analyzed on a FACS flow cytometer.

The test system of experiment [3] is CD8^+ splenocytes of DNA-immunized mice. The experiment is described as follows: ICS T cell avidity (peptide titration, CD107a/b and IFN-γ). The class given is cell-based, BALB/c mice. The settings on record: Figure 3B; individual determinants when dominant: H in group HIVA, P in HIVAdH, G1 in dHmP, NPP in dHmPG1; 3x 100 µg DNA; 5 h. As for the experimental part:
T2 cell lines were incubated with decreasing peptide concentrations ranging from 100 µM to 0.1 µM indicated above the H peptide histogram and the cell surface peptide-loaded MHC complexes were detected by fluorochrome-conjugated mAb (DB Biosciences) and quantified using FACS flow cytometer. B) and C) Groups of 3 BALB/c mice were given 3x immunizations using 100 µg of DNA expressing the index or mutated forms of HIVA at 3 wk intervals and their T cell responses were analyzed 4 wk later. B) Splenocytes were assessed in an ICS assay using peptides indicated above the graphs at concentrations ranging from 10 to 10^−8 µM for 5 h. Cells were gated on IFN-γ-producing CD8^+ T cell populations positive (top) or negative (bottom) for CD107a/b. Note the different y-axis scales on the top and bottom graphs. C) The response kinetics of CD8^+ T cells re-stimulated with 0.1 µM peptides was assessed in an ICS assay in 1-h intervals for a period of 4 h. Data shown are as mean±SD of [CD8^+CD107a/b^+IFN-γ^+ cells at each time point (%)] ÷ [CD8^+CD107a/b^+IFN-γ^+ at 4 h (%)]. One out of two independent experiments is shown.
We also measured avidities of T cell responses recovered through the sequential HIVA epitope up-ranking. First, responsiveness of immune splenocytes following 3 plasmid DNA deliveries was measured in an ICS assay upon re-stimulation with peptide concentrations ranging from 10^−8 to 10 µM for 5 h (Figure 3A).

The next experiment concerns CD8^+CD107a/b^+ T cells. The experiment is described as follows: Multicolour flow cytometry after mixed or split vaccination. The class given is cell-based, BALB/c mice. For orientation: Flow cytometry measures light scatter and fluorescence of single cells or particles in a stream.
In experiment [4] the test system is splenocytes of pTHr.HIVA immunized mice. The experiment is described as follows: IFN-γ ELISPOT immunogenicity of HIVA. The class given is cell-based, BALB/c mice. The settings on record: Figure 1B and D top.
In the next experiment the target is H-2K^d (Mus musculus, UniProt P01902). The settings on record: ref [34]; cited from earlier work. From the text:
Our research interests lie in development of the T cell component of HIV-1 vaccines stimulating protective CD8^+ T cell responses. The first-generation T cell immunogen, designated HIVA (Figure 1A), has served as an extremely useful tool for iterative improving of CD8^+ T cell induction by experimental vaccines in mice, non-human primates and humans [reviewed in [30]]. To increase the power of T cell analysis and study the role of subdominant determinants, H-2^d class I-restricted epitopes contained in the HIVA immunogen were mapped in detail. Thus, the most immunodominant epitope of ...

Another experiment concerns EcoHIV/NDK. The experiment is described as follows: EcoHIV/NDK challenge. The settings on record: Figure 7C and D; 2x 100 µg DNA, challenge 5 d later; splenocytes and peritoneal macrophages, qPCR. On the technique in general: In qPCR the cycle at which signal appears reflects the starting amount.
Another experiment deals with CD8^+ T cells. The experiment in a line: ICS of HIVB-induced responses pre- and post-EcoHIV challenge. The settings on record: Figure 7B, pTH.HIVB DNA twice.

Chain of H-2K^d (P01902 whole entry, looked up): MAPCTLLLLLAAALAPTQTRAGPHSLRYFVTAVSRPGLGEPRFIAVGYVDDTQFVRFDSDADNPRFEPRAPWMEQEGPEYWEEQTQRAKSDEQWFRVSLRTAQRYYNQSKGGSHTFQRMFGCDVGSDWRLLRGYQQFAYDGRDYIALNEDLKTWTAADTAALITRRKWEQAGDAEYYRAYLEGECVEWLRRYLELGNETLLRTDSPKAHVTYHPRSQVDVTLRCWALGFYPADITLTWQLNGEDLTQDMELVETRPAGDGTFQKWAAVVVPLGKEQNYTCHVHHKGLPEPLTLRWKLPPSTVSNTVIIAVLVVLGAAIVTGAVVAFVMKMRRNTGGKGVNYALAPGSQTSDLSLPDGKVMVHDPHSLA

Turning to AMQMLKDTI [G1], the “frequencies of IFN-γ-producing CD8^+ cells” value in experiment [1] is “noticeably, though not significantly increased”. For the same sequence, in experiment [2], the “peptide binding affinities for respective MHC class I” value is recorded as “directly correlated with the immunodominance hierarchy”. Also, the “peak IFN-γ^+CD107a/b^+CD8^+ cell frequencies at 10 µM peptide” value in experiment [3] is reported as 3.8 % of total CD8^+ splenocytes. Moreover, in the experiment on CD8^+CD107a/b^+ T cells (Figure 4B groups 4 and 5, HIVA-dHmP and dHmP-HIVA prime-boost, 23-wk rest, WR.HIVA re-stimulation), the “G1-specific response relative to epitopes H and P” value is “significantly increased”. In the experiment with CD8^+CD107a/b^+ T cells (Figure 4B groups 7 and 9, pre-mixed vaccines injected into 2 sites), the anti-G1 responses result is given as “failed to induce anti-G1 responses”. The “T cell response to G1 from HIVA” value in experiment [4] is “hardly detectable responses”. Besides, the “MHC class I restriction (H-2K^d)” value on H-2K^d is on record as “H-2K^d-restricted”. Besides, the “protection against EcoHIV/NDK challenge” value in the experiment on EcoHIV/NDK is on record as “sufficient to induce protective efficacy; also recorded: enhanced clearance of EcoHIV/NDK infection”. Moreover, the “CD8^+ T cell response after HIVB vaccination” value in the experiment with CD8^+ T cells is recorded as “the only detectable CD8^+ T cell response”.
